Where “and” joins values, the source holds several entries; their conditions need not be identical. Equal entries are not always repeated. Inconclusive results and toxic doses are left out.

This note sets out measurements from PubChem BioAssay AID248 (DTP/NCI, 2004).

The test deals with L1210 leukemia ip in BDF1 mice, survival T/C. Nature of the test: NCI In Vivo Anticancer Drug Screen. Data for tumor model L1210 Leukemia (intraperitoneal) in B6D2F1 (BDF1) mice. The following applies: endpoint: mean survival time, higher = longer survival. In outline: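 In this screen, tumor-bearing mice given compound are compared to those given vehicle, and their survival values are reported as a treated-to-control quotient.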

[1] abbreviates: dose: 25.0 mg/kg/injection, schedule: Q01DX009 (ip), vehicle: saline with Tween-80.
Setting [2] is: dose: 50.0 mg/kg/injection, schedule: Q01DX009 (ip), vehicle: saline with Tween-80.
[3] abbreviates: dose: 100.0 mg/kg/injection, schedule: Q01DX009 (ip), vehicle: saline with Tween-80.
Where [4] appears, read: dose: 100.0 mg/kg/injection, schedule: Q04DX003 (ip), vehicle: saline with Tween-80.
Setting [5] is: dose: 200.0 mg/kg/injection, schedule: Q04DX003 (ip), vehicle: saline with Tween-80.
Setting [6] is: dose: 400.0 mg/kg/injection, schedule: Q04DX003 (ip), vehicle: saline with Tween-80.
Where [7] appears, read: dose: 100.0 mg/kg/injection, schedule: Q04DX003 (ip), vehicle: saline.
Where [8] appears, read: dose: 100.0 mg/kg/injection, schedule: Q01DX001 (ip), vehicle: saline.
Setting [9] is: dose: 200.0 mg/kg/injection, schedule: Q01DX001 (ip), vehicle: saline.
The mark [10] stands for this setting: dose: 400.0 mg/kg/injection, schedule: Q01DX001 (ip), vehicle: saline.

`OC1C=C(Br)C2CCC1CC2` (stereo not given): the T/C is 113 % of control (dose: 100.0 mg/kg/injection, schedule: Q01DX009 (ip), vehicle: other); 96 % of control (dose: 100.0 mg/kg/injection, schedule: Q04DX003 (ip), vehicle: other); 100 % of control (dose: 200.0 mg/kg/injection, schedule: Q01DX009 (ip), vehicle: other); 107 % of control (dose: 200.0 mg/kg/injection, schedule: Q04DX003 (ip), vehicle: other); 92 % of control (dose: 400.0 mg/kg/injection, schedule: Q01DX009 (ip), vehicle: other); 100 % of control (dose: 400.0 mg/kg/injection, schedule: Q04DX003 (ip), vehicle: other).

`O=C(CCl)Oc1cccc([N+](=O)[O-])c1`: the T/C was 92 % of control under setting [1]; 112 % of control under setting [2]; 107 % of control under setting [3]; 91 % of control under setting [4]; 96 % of control under setting [5]; 94 % of control under setting [6].

As for `CC(C)(/C=N/N=C(N)N)CCC#N`, the T/C was 98 % of control (dose: 60.0 mg/kg/injection, schedule: Q01DX Z (oral), vehicle: saline); 109 % of control (dose: 120.0 mg/kg/injection, schedule: Q01DX Z (oral), vehicle: saline); 103 % of control (dose: 240.0 mg/kg/injection, schedule: Q01DX Z (oral), vehicle: saline); 94 % of control and 116 % of control (dose: 480.0 mg/kg/injection, schedule: Q01DX Z (oral), vehicle: saline).

As to `Cn1c2ccccc2c(=O)c2cc(N)ccc21`, the T/C runs as follows: under setting [7], 95 % of control; (dose: 200.0 mg/kg/injection, schedule: Q04DX003 (ip), vehicle: saline) 98 % of control; (dose: 400.0 mg/kg/injection, schedule: Q04DX003 (ip), vehicle: saline) 104 % of control.

For `C/C=C(\C)C(=O)Nc1cccc(O)c1`, the T/C by setting is: under setting [4], 90 % of control; under setting [5], 93 % of control; under setting [6], 90 % of control.

With `CCOC(=O)NC1CC1`, the T/C is 93 % of control under setting [8], 95 % of control under setting [9] and 101 % of control under setting [10].

For `COc1ccc(C)cc1OC(CCC(C)C)C(C)=O` (stereo not given), the T/C (dose: 75.0 mg/kg/injection, schedule: Q01DX001 (ip), vehicle: carboxymethylcellulose (CMC)) is 93 % of control; the T/C (dose: 150.0 mg/kg/injection, schedule: Q01DX001 (ip), vehicle: carboxymethylcellulose (CMC)) was 96 % of control; the T/C (dose: 300.0 mg/kg/injection, schedule: Q01DX001 (ip), vehicle: carboxymethylcellulose (CMC)) is 90 % of control.

As to `CNC(=S)n1cncn1`, the T/C is, setting by setting: (dose: 100.0 mg/kg/injection, schedule: Q01DX009 (ip), vehicle: saline) 91 % of control; (dose: 200.0 mg/kg/injection, schedule: Q01DX009 (ip), vehicle: saline) 108 % of control; (dose: 400.0 mg/kg/injection, schedule: Q01DX009 (ip), vehicle: saline) 92 % of control.

For the molecule `CC1(C)OCC(CO)([N+](=O)[O-])CO1`, the T/C is, setting by setting: (dose: 12.5 mg/kg/injection, schedule: Q04DX003 (ip), vehicle: saline with Tween-80) 92 % of control; under setting [1], 108 % of control; (dose: 25.0 mg/kg/injection, schedule: Q04DX003 (ip), vehicle: saline with Tween-80) 93 % of control; under setting [2], 108 % of control; (dose: 50.0 mg/kg/injection, schedule: Q04DX003 (ip), vehicle: saline with Tween-80) 95 % of control; under setting [3], 108 % of control. The T/C under setting [4] was 100 % of control and the T/C (dose: 150.0 mg/kg/injection, schedule: Q04DX003 (ip), vehicle: saline with Tween-80) is 94 % of control.

In the case of `CCN(CC)CC(=O)NCC(CCN1CCCCC1)(CCN1CCCCC1)c1cccc2ccccc12`, the T/C is, setting by setting: (dose: 25.0 mg/kg/injection, schedule: Q01DX009 (ip), vehicle: saline) 96 % of control; (dose: 50.0 mg/kg/injection, schedule: Q01DX009 (ip), vehicle: saline) 104 % of control; under setting [7], 110 % of control.

As for `ClC12c3ccccc3C(c3ccccc31)C1(Cl)c3ccccc3C2c2ccccc21`, the T/C reads like this: (dose: 100.0 mg/kg/injection, schedule: Q04DX002 (ip), vehicle: Klucel (hydroxypropylcellulose) (HPC)) 102 % of control; (dose: 200.0 mg/kg/injection, schedule: Q04DX002 (ip), vehicle: Klucel (hydroxypropylcellulose) (HPC)) 109 % of control; (dose: 400.0 mg/kg/injection, schedule: Q04DX002 (ip), vehicle: Klucel (hydroxypropylcellulose) (HPC)) 106 % of control.

On to `O=[N+]([O-])c1ccc(NCc2ccccc2O)cc1`, for which the T/C is 110 % of control (dose: 75.0 mg/kg/injection, schedule: Q04DX003 (ip), vehicle: other); 101 % of control (dose: 100.0 mg/kg/injection, schedule: Q01DX001 (ip), vehicle: Klucel (hydroxypropylcellulose) (HPC)); 97 % of control (dose: 150.0 mg/kg/injection, schedule: Q04DX003 (ip), vehicle: other); 106 % of control (dose: 200.0 mg/kg/injection, schedule: Q01DX001 (ip), vehicle: Klucel (hydroxypropylcellulose) (HPC)); 103 % of control (dose: 300.0 mg/kg/injection, schedule: Q04DX003 (ip), vehicle: other); 101 % of control (dose: 400.0 mg/kg/injection, schedule: Q01DX001 (ip), vehicle: Klucel (hydroxypropylcellulose) (HPC)).

As for `OC(COc1ccccc1)CC(O)(C(F)(F)F)C(F)(F)F` (stereo not given), the T/C (dose: 75.0 mg/kg/injection, schedule: Q01DX009 (ip), vehicle: saline with Tween-80) was 92 % of control; the T/C (dose: 150.0 mg/kg/injection, schedule: Q01DX009 (ip), vehicle: saline with Tween-80) was 89 % of control; the T/C (dose: 300.0 mg/kg/injection, schedule: Q01DX009 (ip), vehicle: saline with Tween-80) is 103 % of control.

As for `CC1OC(C2COC(C)(C)O2)C2OC(C)(C)OC12` (stereo not given), the T/C (dose: 100.0 mg/kg/injection, schedule: Q01DX001 (ip), vehicle: saline with Tween-80) is 101 % of control; the T/C (dose: 200.0 mg/kg/injection, schedule: Q01DX001 (ip), vehicle: saline with Tween-80) is 101 % of control; the T/C (dose: 400.0 mg/kg/injection, schedule: Q01DX001 (ip), vehicle: saline with Tween-80) was 101 % of control.

For `CCCCCCCCCCCCN=Cc1cc(Cl)ccc1O`, the T/C (dose: 222.0 mg/kg/injection, schedule: Q01DX Z (ip), vehicle: methylcellulose (MC)) is 95 % of control; the T/C (dose: 333.0 mg/kg/injection, schedule: Q01DX Z (ip), vehicle: methylcellulose (MC)) is 102 % of control; the T/C (dose: 500.0 mg/kg/injection, schedule: Q01DX Z (ip), vehicle: methylcellulose (MC)) was 102 % of control.

Regarding `CCOC(=O)CNC(=O)OCCSc1ccc(C)cc1`, the T/C is 97 % of control under setting [3] and 93 % of control (dose: 200.0 mg/kg/injection, schedule: Q01DX009 (ip), vehicle: saline with Tween-80).

As to `CC(=O)OCC1CCC(NC(=O)N(CCF)N=O)CC1` (stereo not given), the T/C is, setting by setting: (dose: 9.0 mg/kg/injection, schedule: Q01DX001 (ip), vehicle: saline with Tween-80) 106 % of control; (dose: 13.0 mg/kg/injection, schedule: Q01DX001 (ip), vehicle: saline with Tween-80) 110 % of control; (dose: 20.0 mg/kg/injection, schedule: Q01DX001 (ip), vehicle: saline with Tween-80) 100 % of control; (dose: 45.0 mg/kg/injection, schedule: Q01DX001 (ip), vehicle: saline with Tween-80) 353 % of control.

As to `C[N+]1(C)C2CCC1C(CO)C(O)C2` (stereo not given), the T/C runs as follows: under setting [8], 94 % of control; under setting [9], 97 % of control; under setting [10], 94 % of control.

In the case of `c1cc2c(c3c1CC1c4cc5c(cc4CCN1C3)OCO5)OCO2` (stereo not given), the T/C under setting [8] is 86 % of control.

`CCC(C)n1c(C)cc(=O)n1C(C)CC` (stereo not given): the T/C reads like this: (dose: 15.0 mg/kg/injection, schedule: Q01DX001 (ip), vehicle: saline) 101 % of control; (dose: 30.0 mg/kg/injection, schedule: Q01DX001 (ip), vehicle: saline) 97 % of control; (dose: 60.0 mg/kg/injection, schedule: Q01DX001 (ip), vehicle: saline) 101 % of control.

For the molecule `O=C(N/N=C/c1ccc(Cl)cc1)Nc1ccccc1`, the T/C is, setting by setting: (dose: 100.0 mg/kg/injection, schedule: Q01DX009 (ip), vehicle: Klucel (hydroxypropylcellulose) (HPC)) 90 % of control; (dose: 200.0 mg/kg/injection, schedule: Q01DX009 (ip), vehicle: Klucel (hydroxypropylcellulose) (HPC)) 96 % of control.
